ChEMBL document CHEMBL6177994 (J Med Chem, 2025)
Active and inactive are the calls of the source. No cut-off for these calls is given here.

How the values were obtained:
GP2d = test: PROTAC activity at CRBN/KRAS G12D mutant in human GP2d cells assessed as induction of KRAS G12D mutant degradation at 0.004 to 250 nM measured after 24 hrs by immunoblot analysis; format: cell-based; conditions: dose 0.004-250 nM
GTPase KRas = GTPase KRas (Homo sapiens, UniProt P01116, G12D); test: Binding affinity to 6 His-tagged GDP-loaded human KRAS G12D mutant assessed as GDP-GTP exchange preincubated for 30 mins followed by GTP addition for 30 mins by HTRF method
[1] = test system: Protein cereblon/GTPase KRas (Homo sapiens), P01116+Q96SW2 [G12D]; test: PROTAC activity at CRBN/KRAS G12D mutant in human ASPC1 cells assessed as induction of KRAS G12D mutant degradation at 5 nM measured after 24 hrs by immunoblot analysis relative to control; format: cell-based
[2] = test system: Protein cereblon/GTPase KRas (Homo sapiens), P01116+Q96SW2 [G12D]; test: PROTAC activity at CRBN/KRAS G12D mutant in human ASPC1 cells assessed as induction of KRAS G12D mutant degradation at 50 nM measured after 24 hrs by immunoblot analysis relative to control; format: cell-based
[3] = test system: Protein cereblon/GTPase KRas (Homo sapiens), P01116+Q96SW2 [G12D]; test: PROTAC activity at CRBN/KRAS G12D mutant in human ASPC1 cells assessed as induction of KRAS G12D mutant degradation at 100 nM measured after 24 hrs by immunoblot analysis relative to control; format: cell-based
[4] = test system: Protein cereblon/GTPase KRas (Homo sapiens), P01116+Q96SW2 [G12D]; test: PROTAC activity at CRBN/KRAS G12D mutant in human ASPC1 cells assessed as induction of KRAS G12D mutant degradation at 5 uM measured after 24 hrs by immunoblot analysis relative to control; format: cell-based
[5] = test system: Protein cereblon/GTPase KRas (Homo sapiens), P01116+Q96SW2 [G12D]; test: PROTAC activity at CRBN/KRAS G12D mutant in human ASPC1 cells assessed as induction of KRAS G12D mutant degradation at 1 uM measured after 24 hrs by immunoblot analysis relative to control; format: cell-based
[6] = test system: Protein cereblon/GTPase KRas (Homo sapiens), P01116+Q96SW2 [G12D]; test: PROTAC activity at CRBN/KRAS G12D mutant in human ASPC1 cells assessed as induction of KRAS G12D mutant degradation at 15 nM measured after 24 hrs by immunoblot analysis relative to control; format: cell-based
ASPC1 = test: Antiproliferative activity against human ASPC1 cells harbouring KRAS G12D mutant assessed as inhibition of cell growth measured after 72 hrs by Cell titer glo method; format: functional, cell-based; conditions: ASPC1, 72 h
[7] = Inhibition of ERK phosphorylation in human ASPC1 cells harbouring KRAS G12D mutant measured after 24 hrs; format: cell-based; conditions: ASPC1, 24 h
[8] = Toxicity in female Balb/c nude mouse xenografted with human PK-59 cells assessed as change in body weight at 1.8 mg/kg, iv QW measured after 28 days; format: organism-based; conditions: in vivo, 672 h, time 28 day
[9] = Inhibition of ERK phosphorylation in human GP2d cells harbouring KRAS G12D mutant measured after 24 hrs; format: cell-based
[10] = Inhibition of ERK phosphorylation in human AGS cells harbouring KRAS G12D mutant measured after 24 hrs; format: cell-based
[11] = Antiproliferative activity against human PK-59 cells harbouring KRAS G12D mutant assessed as inhibition of cell growth measured after 72 hrs by Cell titer glo method; format: functional, cell-based; conditions: PK-59, 72 h
[12] = Inhibition of ERK phosphorylation in human PK-59 cells harbouring KRAS G12D mutant measured after 24 hrs; format: cell-based; conditions: PK-59, 24 h
[13] = Antiproliferative activity against human GP2d cells harbouring KRAS G12D mutant assessed as inhibition of cell growth measured after 72 hrs by Cell titer glo method; format: functional, cell-based
[14] = Inhibition of Raf (unknown origin)/GTP loaded KRas G12D mutant interaction preincubated for 15 mins followed by anti-tag1-eu3 and Tag2-XL665 antibody addition and measured for 120 mins by HTRF method; set-up: species or system Homo sapiens
[15] = Antitumor activity against human PK-59 cells xenografted in female Balb/c nude mouse model assessed as tumor growth inhibition at 1.81 mg/kg, iv QW measured after 28 days relative to control; format: functional; conditions: PK-59, 672 h, time 28 day, read-out: TGI
AGS = test: Antiproliferative activity against human AGS cells harbouring KRAS G12D mutant assessed as inhibition of cell growth measured after 72 hrs by Cell titer glo method; format: functional, cell-based

Sequence of Protein cereblon/GTPase KRas (Homo sapiens), P01116+Q96SW2 [G12D] (P01116 whole entry G12D): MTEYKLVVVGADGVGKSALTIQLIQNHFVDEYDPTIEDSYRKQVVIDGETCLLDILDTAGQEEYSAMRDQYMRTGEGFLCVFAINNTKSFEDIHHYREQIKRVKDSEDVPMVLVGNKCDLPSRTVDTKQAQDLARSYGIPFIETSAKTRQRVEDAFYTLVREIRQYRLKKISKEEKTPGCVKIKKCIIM
Sequence of Protein cereblon/GTPase KRas (Homo sapiens), P01116+Q96SW2 [G12D] (Q96SW2 whole entry partner): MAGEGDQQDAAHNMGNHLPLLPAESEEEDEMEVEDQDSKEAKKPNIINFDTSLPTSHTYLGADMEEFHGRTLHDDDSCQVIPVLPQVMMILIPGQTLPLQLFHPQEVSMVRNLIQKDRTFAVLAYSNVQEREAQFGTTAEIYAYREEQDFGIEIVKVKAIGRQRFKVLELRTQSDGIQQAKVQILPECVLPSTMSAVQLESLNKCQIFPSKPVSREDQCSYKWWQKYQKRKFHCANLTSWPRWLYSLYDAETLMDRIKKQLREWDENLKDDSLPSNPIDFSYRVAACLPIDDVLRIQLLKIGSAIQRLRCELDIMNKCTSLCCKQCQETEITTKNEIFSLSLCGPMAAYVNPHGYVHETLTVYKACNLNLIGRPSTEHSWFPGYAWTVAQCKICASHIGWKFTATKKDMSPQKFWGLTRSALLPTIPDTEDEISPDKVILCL
Sequence of GTPase KRas (P01116 whole entry G12D): as the sequence (P01116 whole entry G12D) above

Structure (SMILES) | Activity [1] | Activity [2] | Activity [3] | also measured
C#Cc1c(F)ccc2cc(O)cc(-c3ncc4c(N5CC6CCC(C5)N6)nc(OCC5(CN6CCC7(CC6)CC(N6CCN(c8cc9c(cc8F)c(N8CCC(=O)N(C)C8=O)nn9C)CC6)C7)CC5)nc4c3F)c12 | – | – | – | Activity (GP2d): inactive; IC50 (GTPase KRas): 4.02 nM
C#Cc1c(F)ccc2cc(O)cc(-c3ncc4c(N5CC6CCC(C5)N6)nc(OCC5(CN6CCC7(CC6)CC(N6CCN(c8ccc(N9CCC(=O)NC9=O)cc8)CC6)C7)CC5)nc4c3F)c12 | 6% | 2% | – | –
C#Cc1c(F)ccc2cc(O)cc(-c3ncc4c(N5CC6CCC(C5)N6)nc(OCC5(CN6CCN(C(=O)CN7CCN(c8ccc9c(c8)C(=O)N(C8CCC(=O)NC8=O)C9=O)CC7)CC6)CC5)nc4c3F)c12 (stereo not given) | – | – | 40% | –
C#Cc1c(F)ccc2cc(O)cc(-c3ncc4c(N5CC6CCC(C5)N6)nc(OCC5(CN6CCC7(CC6)CC(N6CCC(c8cccc9c8C(=O)N(C8CCC(=O)NC8=O)C9=O)CC6)C7)CC5)nc4c3F)c12 (stereo not given) | -3% | -12% | – | –
C#Cc1c(F)ccc2cc(O)cc(-c3ncc4c(N5CC6CCC(C5)N6)nc(OCC5(CN6CCC7(CC6)CC(N6CCC(c8cccc(C9CCC(=O)NC9=O)c8)CC6)C7)CC5)nc4c3F)c12 (stereo not given) | -8% | -20% | – | –
C#Cc1c(F)ccc2cc(O)cc(-c3ncc4c(N5CC6CCC(C5)N6)nc(OCC5(CN6CCN(c7ccc8c(c7)C(=O)N(C7CCC(=O)NC7=O)C8=O)CC6)CC5)nc4c3F)c12 (stereo not given) | – | – | 58% | –
C#Cc1c(F)ccc2cc(O)cc(-c3ncc4c(N5CC6CCC(C5)N6)nc(OCC5(CN6CCC7(CC6)CC(N6CCC(c8cccc(N9CCC(=O)NC9=O)c8)CC6)C7)CC5)nc4c3F)c12 | 0% | -10% | – | –
C#Cc1c(F)ccc2cc(O)cc(-c3ncc4c(N5CC6CCC(C5)N6)nc(OCCCN5CCN(C(=O)CN6CCN(c7ccc8c(c7)C(=O)N(C7CCC(=O)NC7=O)C8=O)CC6)CC5)nc4c3F)c12 (stereo not given) | – | 9% | 10% | Activity [4]: 23%; Activity [5]: 21%
C#Cc1c(F)ccc2cc(O)cc(-c3ncc4c(N5CC6CCC(C5)N6)nc(OCCCN5CCN(C(=O)CN6CCN(c7cccc8c7C(=O)N(C7CCC(=O)NC7=O)C8=O)CC6)CC5)nc4c3F)c12 (stereo not given) | – | 12% | 8% | Activity [4]: 7%; Activity [5]: 0%
C#Cc1c(F)ccc2cc(O)cc(-c3ncc4c(N5CC6CCC(C5)N6)nc(OCCCN5CCN(CC(=O)N6CCN(c7ccc8c(c7)C(=O)N(C7CCC(=O)NC7=O)C8=O)CC6)CC5)nc4c3F)c12 (stereo not given) | – | 1% | -1% | Activity [4]: 9%; Activity [5]: 4%
C#Cc1c(F)ccc2cc(O)cc(-c3ncc4c(N5CC6CCC(C5)N6)nc(OCC5(CN6CCC7(CC6)CC(N6CCC(c8ccc(C9CCC(=O)NC9=O)cc8)CC6)C7)CC5)nc4c3F)c12 (stereo not given) | 32% | 81% | – | –
C#Cc1c(F)ccc2cc(O)cc(-c3ncc4c(N5CC6CCC(C5)N6)nc(OCC5(CN6CCC7(CC6)CC(N6CCN(c8ccc9c(c8)C(=O)N(C8CCC(=O)NC8=O)C9=O)CC6)C7)CC5)nc4c3F)c12 (stereo not given) | 48% | 64% | – | –
C#Cc1c(F)ccc2cc(O)cc(-c3ncc4c(N5CC6CCC(C5)N6)nc(OCC5(CN6CCC7(CC6)CCN(c6ccc8c(c6)C(=O)N(C6CCC(=O)NC6=O)C8=O)CC7)CC5)nc4c3F)c12 (stereo not given) | – | 57% | – | Activity [6]: 32%
C#Cc1c(F)ccc2cc(O)cc(-c3ncc4c(N5CC6CCC(C5)N6)nc(OCC5(CN6CCC7(CC6)CC(N6CCC(c8ccc(NC9CCC(=O)NC9=O)cc8F)CC6)C7)CC5)nc4c3F)c12 (stereo not given) | 84% | 79% | – | –
C#Cc1c(F)ccc2cc(O)cc(-c3ncc4c(N5CC6CCC(C5)N6)nc(OCC5(CN6CCC7(CC6)CC(N6CCN(c8cccc9c8C(=O)N(C8CCC(=O)NC8=O)C9=O)CC6)C7)CC5)nc4c3F)c12 (stereo not given) | 21% | 34% | – | –
C#Cc1c(F)ccc2cc(O)cc(-c3ncc4c(N5CC6CCC(C5)N6)nc(OCC5(CN6CCC7(CC6)CC(N6CCC(c8ccc9c(c8)C(=O)N(C8CCC(=O)NC8=O)C9=O)CC6)C7)CC5)nc4c3F)c12 (stereo not given) | 37% | 59% | – | –
C#Cc1c(F)ccc2cc(O)cc(-c3ncc4c(N5CC6CCC(C5)N6)nc(OCC5(CN6CCC7(CC6)CC(N6CCN(c8ccc(NC9CCC(=O)NC9=O)cc8F)CC6)C7)CC5)nc4c3F)c12 (stereo not given) | 54% | 64% | – | –
C#Cc1c(F)ccc2cc(O)cc(-c3ncc4c(N5CC6CCC(C5)N6)nc(OC[C@@]56CCCN5C[C@H](F)C6)nc4c3F)c12 [MRTX-1133] | – | – | – | IC50 (ASPC1): 56.8 nM; IC50 [7]: 20.3 nM; Activity [8]: Non-toxic; IC50 [9]: 0.87 nM; IC50 [10]: 24.7 nM; IC50 [11]: 2.9 nM; IC50 [12]: 4.2 nM; IC50 [13]: 0.91 nM; IC50 [14]: 1.43 nM; inhibition in vivo at 1.81 mg/kg [15]: 58.7%; IC50 (AGS): 2.43 nM
C#Cc1c(F)ccc2cc(O)cc(-c3ncc4c(N5CC6CCC(C5)N6)nc(OCCCN5CCN(CC(=O)N6CCN(c7cccc8c7C(=O)N(C7CCC(=O)NC7=O)C8=O)CC6)CC5)nc4c3F)c12 (stereo not given) | – | 2% | 0% | Activity [4]: 7%; Activity [5]: 7%
C#Cc1c(F)ccc2cc(O)cc(-c3ncc4c(N5CC6CCC(C5)N6)nc(OCC5(CN6CCC7(CC6)CC(N6CCN(c8ccc(NC9%10CC(C9)C(=O)NC%10=O)cc8F)CC6)C7)CC5)nc4c3F)c12 | 68% | 67% | – | –
